Reference: paper doi:10.1101/2020.11.19.390633v1 (biorxiv, 2020)

Target: murine wtIDH1 (KPC cells) (Mus musculus, UniProt O88844)
Test: cell-based IDH activity assay, NADPH synthesis, after IDH2 siRNA
Settings: KPC murine cells, […] MgSO4, […] h; allosteric

Chain of murine wtIDH1 (KPC cells) (O88844 2-414): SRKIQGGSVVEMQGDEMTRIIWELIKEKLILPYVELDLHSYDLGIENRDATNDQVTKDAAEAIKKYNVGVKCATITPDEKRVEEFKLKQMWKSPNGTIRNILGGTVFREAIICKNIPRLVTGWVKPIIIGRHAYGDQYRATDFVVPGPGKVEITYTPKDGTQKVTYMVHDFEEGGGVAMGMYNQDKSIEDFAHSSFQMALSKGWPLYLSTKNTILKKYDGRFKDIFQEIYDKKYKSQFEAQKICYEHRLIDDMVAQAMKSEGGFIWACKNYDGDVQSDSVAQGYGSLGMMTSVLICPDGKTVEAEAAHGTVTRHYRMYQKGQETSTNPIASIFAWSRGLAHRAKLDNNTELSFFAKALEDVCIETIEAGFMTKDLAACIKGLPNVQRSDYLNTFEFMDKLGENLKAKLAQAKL

- EC50: 110 ± 2 nM
Compound: N#Cc1ccnc(N2C(=O)CC[C@H]2C(=O)N(c2cncc(F)c2)[C@H](C(=O)NC2CC(F)(F)C2)c2ccccc2Cl)c1 [AG-120]
